Here are results for ten compounds from PubChem BioAssay (NCI).

What all share (experiment): inhibition of tumour cell growth, NCI panel, 48 h
In assay [1] the test system is 786-0 renal.
Assay [2] relates to A498 renal.
Assay [3] has as its system BT-549 breast.
For assay [4], the system named is COLO 205 colon.
The test system of assay [5] is HL-60(TB) leukemia.
In assay [6] the test system is MDA-MB-231 breast.
For assay [7], the system named is OVCAR-4 ovarian.
The subject of assay [8] is SK-MEL-28 melanoma.
Assay [9] deals with SN12C renal.
For assay [10], the system named is SR leukemia.
Assay [11] relates to UO-31 renal.

Structures are written as SMILES.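 96-well plates; 48 h exposure; 5 concentrations. Endpoints by linear interpolation between flanking doses. Not reached: highest tested concentration assigned. Definition used: TGI = concentration required for complete inhibition of growth.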 Bounds are passed on as bounds.

Regarding `CCOC(=O)COC1=Nc2cc(OC)c(OC)c3nc(Cl)cc(c23)C1=O`, the TGI was 3.04 µM in assay [1]; 23.5 µM in [2]; 3.45 µM in assay [3]; 3.88 µM in [4]; 0.879 µM in [5]; 3.28 µM in assay [6]. For the same compound, the TGI in assay [7] was 3.14 µM; in assay [8] it was 4.01 µM; in [9], 3.3 µM; in assay [10] it was more than 21.5 µM; in assay [11], 4.13 µM.
`O=C1/C(=C(/Br)I)c2ccccc2-c2ccccc21`: the TGI was found to be 10.2 µM in assay [1]; 30.2 µM in assay [2]; 19.1 µM in assay [3]; 4.22 µM in assay [4]; 0.516 µM in assay [5]; 19.2 µM in assay [6]. Also, the TGI is 32.3 µM in assay [7]; 42.8 µM in assay [8]; 33.7 µM in assay [9]; more than 30.5 µM in [10]; 6.2 µM in [11].
With `CC(C)(C)C(=O)O[C@H]1C=C[C@@H](O)[C@@H]2[C@H]1[C@@H]1C=C[C@H]2C1`, the TGI in assay [1] was more than 100 µM; in assay [2], 50.8 µM; in assay [3], more than 100 µM; in [4] it was more than 100 µM; in assay [5] it was 33.8 µM; in assay [6], more than 100 µM. For the same compound, the TGI in [7] was 60 µM; in [8], 59.2 µM; in assay [9], 41 µM; in assay [10], more than 100 µM; in assay [11] it was more than 100 µM.
In the case of `O=C1NC(=S)N/C1=C\c1ccc(Sc2ccccc2C(=O)O)s1`, the TGI in [1], in [2], in [3], in [4], in [5] and in assay [6] was more than 100 µM each time. Further, the TGI in assay [7], in [8], in assay [9], in assay [10] and in assay [11] was more than 100 µM each time.
On to `NC(=O)CC[C@H]1C(=O)N=C(N)N1C(=O)OCc1ccccc1`, for which the TGI in assay [1], in [2], in [3], in [4], in assay [5] and in [6] was more than 100 µM in each case. Besides, the TGI in assay [7], in assay [8], in assay [9], in [10] and in assay [11] was more than 100 µM each time.
Consider `CC(C)CCCC(C)[C@H]1CC[C@H]2NCCCC[C@]12C` (stereo not given in full), for which the TGI in assay [1] came to 10.5 µM; in assay [2], 26.6 µM; in assay [3], 29.9 µM; in assay [4], 3.14 µM; in [5], 5.91 µM; in assay [6] it was 9.36 µM. For the same compound, the TGI stood at 17.4 µM in assay [7]; 5.57 µM in [8]; 18.7 µM in assay [9]; 6.23 µM in [10]; 20.7 µM in [11].
With `CCCC(CC)c1cc(O)c(O)cc1C(CC)CCC` (stereo not given), the TGI in [1], in assay [2], in assay [3], in [4], in assay [5] and in [6] was more than 10 µM each time. For the same compound, the TGI in [7], in assay [8], in assay [9], in assay [10] and in assay [11] was more than 10 µM throughout.
On to `O=C1c2ccccc2C2(c3ccc(Cl)cc3)N[C@@H]3CCCC[C@@H]3N12` (stereo not given in full), for which the TGI in assay [1], in [2], in assay [3], in assay [4], in assay [5] and in assay [6] was more than 100 µM in each case. Further, the TGI in [7], in assay [8], in assay [9], in [10] and in assay [11] was more than 100 µM in each case.
Turning to `O=c1cnc2cc3ccccc3cc2[nH]1`, the TGI in [1], in assay [2], in assay [3], in assay [4], in assay [5] and in assay [6] was more than 100 µM throughout. Moreover, the TGI in assay [7], in [8], in assay [9], in assay [10] and in [11] was more than 100 µM throughout.
Turning to `O=C1/C(=C/C=C/c2ccccc2)CCC1CNc1ccc(Br)cc1` (stereo not given), the TGI is more than 100 µM in assay [1]; more than 100 µM in assay [2]; more than 100 µM in [3]; 48.6 µM in assay [4]; more than 100 µM in [5]; more than 100 µM in assay [6]. In addition, the TGI in [7], in assay [8], in [9], in [10] and in assay [11] was more than 100 µM each time.
